This note sets out measurements from US5217971A, “Thiazole compounds and pharmaceutical composition comprising the same” (Fujisawa Pharmaceutical Co., Ltd., priority 1989, dated 1993).

In one data set the test system is rats. Put plainly: Acute toxicity in rats by peroral administration. Type of data set: in vivo.
The next data set deals with stomachs of the rats. Put plainly: Effect on stomach of rats. To be noted: 100 mg/kg, oral. Type of data set: in vivo.
Another data set relates to platelet aggregation. In words: Platelet aggregation ex vivo (1), arachidonic acid-induced, PRP after oral administration. Format: in vivo, male Hartley guinea-pigs. Particulars: guinea-pig, oral 1.0 mg/kg, 6 hours after administration, arachidonic acid final 50 μM. Here is the method: Male Hartley guinea-pigs weighing about 300 g were used after 24 hours fasting. Six hours after oral administration of the test compound or vehicle of test compound (control), blood was collected into a tube containing 0.1 vol. of 3.8% sodium citrate and prepared platelet rich plasma (PRP).
To the 250 μl of PRP, 5 μl of arachidonic acid (final 50 μM) was added as an aggregation inducer. Aggregation was measured by using an aggregometer (NKK HEMA-TRACER 1).

For another data set, the system named is thrombin. Put plainly: Assay for thrombin activity (S-2238 substrate). Format: biochemical. To be noted: concentration 1.0 × 10^-4 M, pH 8.0, 37° C. Here is the method: Thrombin activity was measured using the synthetic peptide substrate (S-2238, Kabivitrum).
After 900 μl of 0.1 M Tris-HCl buffer (pH 8.0), 100 μl of drug solution and 10 μl of 3U/ml thrombin were incubated at 37° C. for 5 min, 2 ml of 100 μM S-2238 was added.
The rate of increase in absorbance at 405 nm due to hydrolysis of S-2238 was measured with a spectrophotometer.
Inhibition (%) of drug was calculated as follows:
Inhibition (%)=(S-B)/A×100
A:Abs/min in the absence of drug
B:Abs/min in the presence of drug

As for `COc1ccc(-c2nc(C(=O)N3CCN(C)CC3)sc2-c2ccc(OC)cc2)cc1.Cl` [Example 1, 4,5-bis(4-methoxyphenyl)-2-(4methylpiperazin-1-yl)carbonylthiazole hydrochloride], the “acute toxicity, deaths at 100 mg/kg” value in the data set on rats is recorded as “the dead at dose of 100 mg/kg could not be observed”. The “lesion in stomachs of rats” value in the data set on stomachs of the rats is given as “No lesion was observed”. The “Inhibition (%) of platelet aggregation” value with platelet aggregation is 100%.
For the compound `COc1ccc(-c2nc(C(=O)NC(=N)N)sc2-c2ccc(OC)cc2)cc1` [Example 5, 4,5-bis(4-methoxyphenyl)-2-guanidinocarbonylthiazole], the “Inhibition (%) of thrombin activity” value with thrombin turned out to be 92.2%.
